Measurements: PubChem BioAssay (NCI)
Several values for one entry are separate records, joined by “and”; a condition that tells them apart may be missing. Identical values can stand only once.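 Each compound was tested at five concentrations against cells in 96-well plates for 48 hours. Abbreviation: GI50, concentration required for 50% inhibition of growth. TGI: concentration producing complete growth inhibition.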 Starred links: 1 amine or outer side, 2 acyl side, 3 side chain; linkers in the order of their positions; H or OH if unused. Positions of bridges follow the written chain, without caps; N, C: chain ends. Non-standard residues stand in square brackets, D forms with d. Residues, ends and D or L forms follow the SMILES beside them. Chains are numbered I, II in the order given. Actinocin(9to1) = Cc1c2oc3c(C)ccc(C(=O)[*:1])c3nc-2c(C(=O)[*:2])c(N)c1=O; NMeY = CN[CH](Cc1ccc(O)cc1)C(=O)O; Sar = CNCC(=O)O

Legend:
Assay in all cases: NCI-60 cell line screen, 48 h
K-562 leukemia = test system: K-562 leukemia
OVCAR-8 ovarian = test system: OVCAR-8 ovarian
PC-3 prostate = test system: PC-3 prostate
RPMI-8226 leukemia = test system: RPMI-8226 leukemia
SK-MEL-28 melanoma = test system: SK-MEL-28 melanoma
SK-MEL-5 melanoma = test system: SK-MEL-5 melanoma
SK-OV-3 ovarian = test system: SK-OV-3 ovarian
SNB-75 CNS = test system: SNB-75 CNS
SW-620 colon = test system: SW-620 colon
UACC-62 melanoma = test system: UACC-62 melanoma

## CC(=O)N(C(C)=O)c1ncc(-n2nc(-c3ccccc3)cc2-c2ccccc2)c(-c2ccccc2)n1
K-562 leukemia
  TGI: > 10 µM
OVCAR-8 ovarian
  TGI: > 10 µM
PC-3 prostate
  TGI: > 10 µM
RPMI-8226 leukemia
  TGI: > 10 µM
SK-MEL-28 melanoma
  TGI: > 10 µM
SK-MEL-5 melanoma
  TGI: > 10 µM
SK-OV-3 ovarian
  TGI: > 10 µM
SNB-75 CNS
  TGI: > 10 µM
SW-620 colon
  TGI: > 10 µM
UACC-62 melanoma
  TGI: > 10 µM

## O=[N+]([O-])C[C@@]12O[C@]3(O)C4C5CC(C6C5C3C61)C42 (some centres undefined)
K-562 leukemia
  TGI: > 100 µM
OVCAR-8 ovarian
  TGI: > 100 µM
PC-3 prostate
  TGI: > 100 µM
RPMI-8226 leukemia
  TGI: > 100 µM
SK-MEL-28 melanoma
  TGI: > 100 µM
SK-MEL-5 melanoma
  TGI: > 100 µM
SK-OV-3 ovarian
  TGI: > 100 µM
SNB-75 CNS
  TGI: > 100 µM
SW-620 colon
  TGI: > 100 µM
UACC-62 melanoma
  TGI: > 100 µM

## [N-]=[N+]=Nc1c([N+](=O)[O-])c(=O)n(-c2ccccc2)c2ccccc12
K-562 leukemia
  TGI: 64.8 µM
OVCAR-8 ovarian
  TGI: 48.9 µM
PC-3 prostate
  TGI: 83.9 µM
RPMI-8226 leukemia
  TGI: 56.2 µM
SK-MEL-28 melanoma
  TGI: 80.5 µM
SK-MEL-5 melanoma
  TGI: 59.5 µM
SK-OV-3 ovarian
  TGI: > 100 µM
SNB-75 CNS
  TGI: 68.1 µM
SW-620 colon
  TGI: 58.4 µM
UACC-62 melanoma
  TGI: 59 µM

## O=C1c2ccccc2C(=O)c2c(NCC(O)CO)ccc(NCC(O)CO)c21 (centres undefined)
K-562 leukemia
  TGI: > 100 µM
OVCAR-8 ovarian
  TGI: > 100 µM
PC-3 prostate
  TGI: > 100 µM
RPMI-8226 leukemia
  TGI: > 100 µM
SK-MEL-28 melanoma
  TGI: > 100 µM
SK-MEL-5 melanoma
  TGI: > 100 µM
SK-OV-3 ovarian
  TGI: > 100 µM
SNB-75 CNS
  TGI: > 100 µM
SW-620 colon
  TGI: > 100 µM
UACC-62 melanoma
  TGI: > 100 µM

## COC(=O)C1=C(OC(=O)/C(=C/c2ccc(Cl)cc2)c2ccc(Cl)cc2)C(C(=O)OC)[C@@]2(O)[C@@H](C(=O)OC)[C@H](C)C[C@@H]1[C@@H]2C(=O)OC (some centres undefined)
K-562 leukemia
  TGI: > 100 µM
OVCAR-8 ovarian
  TGI: > 100 µM
PC-3 prostate
  TGI: > 100 µM
RPMI-8226 leukemia
  TGI: > 100 µM
SK-MEL-28 melanoma
  TGI: > 100 µM
SK-MEL-5 melanoma
  TGI: > 100 µM
SK-OV-3 ovarian
  TGI: > 100 µM
SNB-75 CNS
  TGI: > 100 µM
SW-620 colon
  TGI: > 100 µM
UACC-62 melanoma
  TGI: > 100 µM

## CO[C@@]12C[C@@H](C)C3=CCC(C)=C3CC1=C(C)C(=O)O2
K-562 leukemia
  TGI: > 100 µM
OVCAR-8 ovarian
  TGI: > 100 µM
PC-3 prostate
  TGI: > 100 µM
RPMI-8226 leukemia
  TGI: > 100 µM
SK-MEL-28 melanoma
  TGI: > 100 µM
SK-MEL-5 melanoma
  TGI: > 100 µM
SK-OV-3 ovarian
  TGI: > 100 µM
SNB-75 CNS
  TGI: > 100 µM
SW-620 colon
  TGI: > 100 µM
UACC-62 melanoma
  TGI: > 100 µM

## O=[N+]([O-])c1ccc2[nH]c(=S)[nH]c(=S)c2c1
K-562 leukemia
  TGI: > 100 µM
OVCAR-8 ovarian
  TGI: > 100 µM
PC-3 prostate
  TGI: > 100 µM
RPMI-8226 leukemia
  TGI: > 100 µM
SK-MEL-28 melanoma
  TGI: > 100 µM
SK-MEL-5 melanoma
  TGI: > 100 µM
SK-OV-3 ovarian
  TGI: > 100 µM
SNB-75 CNS
  TGI: > 100 µM
UACC-62 melanoma
  TGI: > 100 µM

## COC(=O)C1=C(C(=O)OC)N(c2ccc(OC)cc2[N+](=O)[O-])C(c2ccc(C)cc2)=CC1c1ccc(OC)cc1OC (centres undefined)
K-562 leukemia
  TGI: > 54.4 µM
OVCAR-8 ovarian
  TGI: 47.9 µM
PC-3 prostate
  TGI: > 100 µM
RPMI-8226 leukemia
  TGI: 6.07 µM
SK-MEL-28 melanoma
  TGI: > 100 µM
SK-MEL-5 melanoma
  TGI: > 100 µM
SK-OV-3 ovarian
  TGI: 73.3 µM
SNB-75 CNS
  TGI: > 87.7 µM
SW-620 colon
  TGI: 19.2 µM
UACC-62 melanoma
  TGI: > 100 µM

## O=C1Nc2cccc(Cl)c2/C1=C\c1c(Cl)nc2n1CCS2
K-562 leukemia
  TGI: > 100 µM
OVCAR-8 ovarian
  TGI: > 100 µM
PC-3 prostate
  TGI: > 100 µM
RPMI-8226 leukemia
  TGI: > 100 µM
SK-MEL-28 melanoma
  TGI: > 100 µM
SK-MEL-5 melanoma
  TGI: > 100 µM
SK-OV-3 ovarian
  TGI: > 100 µM
SNB-75 CNS
  TGI: > 100 µM
SW-620 colon
  TGI: > 100 µM
UACC-62 melanoma
  TGI: > 100 µM

## CCn1c(-c2ccccc2)cs/c1=N\C(P(=O)(O)O)P(=O)(O)O
K-562 leukemia
  TGI: > 100 µM
OVCAR-8 ovarian
  TGI: > 100 µM
PC-3 prostate
  TGI: > 100 µM
RPMI-8226 leukemia
  TGI: > 100 µM
SK-MEL-28 melanoma
  TGI: > 100 µM
SK-MEL-5 melanoma
  TGI: > 100 µM
SK-OV-3 ovarian
  TGI: > 100 µM
SNB-75 CNS
  TGI: > 100 µM
SW-620 colon
  TGI: > 100 µM
UACC-62 melanoma
  TGI: > 100 µM

## BrC1=C(Br)C2(SCCS2)[C@H]2C[C@@H]1c1ccccc12
K-562 leukemia
  TGI: > 100 µM
OVCAR-8 ovarian
  TGI: > 100 µM
PC-3 prostate
  TGI: > 100 µM
RPMI-8226 leukemia
  TGI: > 100 µM
SK-MEL-28 melanoma
  TGI: > 100 µM
SK-MEL-5 melanoma
  TGI: > 41.6 µM
SK-OV-3 ovarian
  TGI: > 100 µM
SNB-75 CNS
  TGI: > 85.9 µM
SW-620 colon
  TGI: > 100 µM
UACC-62 melanoma
  TGI: > 100 µM

## Cc1c(C)c2c(c(N)c1C#N)C(=O)N(NC(=O)c1ccccc1)C2=O
K-562 leukemia
  TGI: > 100 µM
OVCAR-8 ovarian
  TGI: > 100 µM
PC-3 prostate
  TGI: > 100 µM
RPMI-8226 leukemia
  TGI: > 100 µM
SK-MEL-28 melanoma
  TGI: > 100 µM
SK-MEL-5 melanoma
  TGI: > 100 µM
SNB-75 CNS
  TGI: > 100 µM
SW-620 colon
  TGI: > 100 µM
UACC-62 melanoma
  TGI: > 100 µM

## O=C1Sc2cc3ccccc3cc2C(=O)Sc2ccc(Br)cc21
K-562 leukemia
  TGI: 19.2 µM
OVCAR-8 ovarian
  TGI: 9.53 µM
PC-3 prostate
  TGI: 12.9 µM
RPMI-8226 leukemia
  TGI: > 100 µM
SK-MEL-28 melanoma
  TGI: 9.79 µM
SK-MEL-5 melanoma
  TGI: 27.5 µM
SK-OV-3 ovarian
  TGI: 29.3 µM
SNB-75 CNS
  TGI: 13.3 µM
SW-620 colon
  TGI: 14.2 µM
UACC-62 melanoma
  TGI: 10.5 µM

## C=CCCON(C(=O)OC(C)(C)C)C(C)(C)C
K-562 leukemia
  TGI: > 100 µM
OVCAR-8 ovarian
  TGI: > 100 µM
PC-3 prostate
  TGI: > 100 µM
RPMI-8226 leukemia
  TGI: > 100 µM
SK-MEL-28 melanoma
  TGI: > 100 µM
SK-MEL-5 melanoma
  TGI: > 100 µM
SK-OV-3 ovarian
  TGI: > 100 µM
SNB-75 CNS
  TGI: > 100 µM
SW-620 colon
  TGI: > 100 µM
UACC-62 melanoma
  TGI: > 100 µM

## COc1cc(OC)cc(Oc2nc3ccccc3nc2C(F)(F)F)c1
K-562 leukemia
  TGI: > 100 µM
OVCAR-8 ovarian
  TGI: > 100 µM
PC-3 prostate
  TGI: > 100 µM
RPMI-8226 leukemia
  TGI: > 100 µM
SK-MEL-28 melanoma
  TGI: > 100 µM
SK-MEL-5 melanoma
  TGI: > 100 µM
SK-OV-3 ovarian
  TGI: > 100 µM
SNB-75 CNS
  TGI: > 100 µM
SW-620 colon
  TGI: > 100 µM
UACC-62 melanoma
  TGI: > 100 µM

## Cc1ccc(C2SCC(=O)N2c2ccc(-n3c(-c4ccccc4)nc4ccccc4c3=O)cc2)cc1 (centres undefined)
K-562 leukemia
  TGI: > 100 µM
OVCAR-8 ovarian
  TGI: > 100 µM
PC-3 prostate
  TGI: 55.4 µM
RPMI-8226 leukemia
  TGI: 55.1 µM
SK-MEL-28 melanoma
  TGI: > 100 µM
SK-MEL-5 melanoma
  TGI: 31.9 µM
SK-OV-3 ovarian
  TGI: 40.5 µM
SNB-75 CNS
  TGI: 90.5 µM
SW-620 colon
  TGI: > 100 µM
UACC-62 melanoma
  TGI: 51.5 µM

## Cc1c2oc3c(C)ccc(C(=O)NC4C(=O)NC(C(C)C)C(=O)N5CCCC5C(=O)N(C)CC(=O)N(C)C(Cc5ccc(O)cc5)C(=O)OC4C)c3nc-2c(C(=O)NC2C(=O)NC(C(C)C)C(=O)N3CCCC3C(=O)N(C)CC(=O)N(C)C(Cc3ccc(O)cc3)C(=O)OC2C)c(N)c1=O (centres undefined) (I: TVP[Sar][NMeY] / II: TVP[Sar][NMeY]; ester I:1-I:C, II:1-II:C; linker I:N-II:N via Actinocin(9to1); configuration not given here)
K-562 leukemia
  GI50: 0.00338 µM and 0.000595 µM
  TGI: > 1 µM
OVCAR-8 ovarian
  TGI: 0.612 µM
PC-3 prostate
  GI50: 0.0407 µM and 0.0115 µM
  TGI: > 1 µM
RPMI-8226 leukemia
  TGI: 0.926 µM and > 1 µM
SK-MEL-28 melanoma
  GI50: 0.0248 µM and 0.00701 µM
  TGI: 0.205 µM and 0.0748 µM
SK-MEL-5 melanoma
  GI50: 0.0227 µM and 0.00612 µM
  TGI: 0.221 µM and 0.0252 µM
SK-OV-3 ovarian
  GI50: 0.16 µM and 0.075 µM
  TGI: > 1 µM
SNB-75 CNS
  GI50: 0.0174 µM and 0.00316 µM
  TGI: 0.278 µM and 0.228 µM
SW-620 colon
  TGI: > 1 µM
UACC-62 melanoma
  GI50: 0.0235 µM and 0.0057 µM
  TGI: 0.157 µM and 0.0213 µM

## NS(=O)(=O)c1ccc(/C=C/c2ccc(O)c(O)c2)cc1
K-562 leukemia
  GI50: 35.3 µM
  TGI: > 100 µM
OVCAR-8 ovarian
  GI50: 16.7 µM
  TGI: 56.5 µM
PC-3 prostate
  TGI: 83.5 µM
RPMI-8226 leukemia
  GI50: 9.16 µM
  TGI: 73.3 µM
SK-MEL-28 melanoma
  TGI: 78.6 µM
SK-MEL-5 melanoma
  TGI: 29.6 µM
SK-OV-3 ovarian
  TGI: 48.8 µM
SNB-75 CNS
  TGI: 58.3 µM
SW-620 colon
  TGI: > 100 µM
UACC-62 melanoma
  GI50: 23.3 µM
  TGI: 42.2 µM

## COC(=O)/C=C(\C(=O)OC)C1C(=O)Oc2c(C)c(=O)c3ccccc3n21 (centres undefined)
K-562 leukemia
  TGI: > 100 µM
OVCAR-8 ovarian
  TGI: > 100 µM
PC-3 prostate
  TGI: > 100 µM
RPMI-8226 leukemia
  TGI: > 100 µM
SK-MEL-28 melanoma
  TGI: > 100 µM
SK-MEL-5 melanoma
  TGI: > 100 µM
SK-OV-3 ovarian
  TGI: > 100 µM
SNB-75 CNS
  TGI: > 100 µM
SW-620 colon
  TGI: > 100 µM
UACC-62 melanoma
  TGI: > 100 µM
